# Results reported in patent US9586986B2, “Substituted 7-deazapurine ribonucleosides for therapeutic uses” (Institute of Organic Chemistry and Biochemistry ASCR, v.v.i., priority 2014, dated 2017).
# Where two headings read alike, the source gives them in different places.
# How the values were obtained:
# Assay type in all cases: cell-based
# [1] = tested on: HCT116; experiment: Cytostatic/cytotoxic MTT assay, HCT116; details: Homo sapiens, read-out: MTT, IC50 HCT116
# Procedure, shortened: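 Human cancer lines, including daunorubicin-resistant CEM-DNR (mrp-1/mdr-1 overexpressing) and paclitaxel-resistant K562-TAX (mdr-1), seeded 25,000-30,000 cells/well, pre-incubated 24 h, then treated in duplicate with four-fold dilutions for 72 h at 37° C, 5% CO2. MTT read-out at 540 nm; IC50 from dose-response curves.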
# [2] = tested on: HCV subtype 1B replicon in Huh-7 cells; experiment: HCV sub-genomic reporter replicon assay, subtype 1B; details: Hepatitis C virus
# Protocol: (§1) Compounds were also tested in Huh-7 cells harboring sub-genomic reporter replicons derived from HCV subtypes 1B and 2A (ref.: Stuyver, L. J.; Whitaker, T.; McBrayer, T. R.; Hernandez-Santiago, B. I.; Lostia, S.; Tharnish, P. M.; Ramesh, M.; Chu, C. K.; Jordan, R.; Shi, J. X.; Rachakonda, S.; Watanabe, K. A.; Otto, M. J.; Schinazi, R. F. Antimicrob. Agents Chemother. 2003, 47, 244-254).
# [3] = tested on: HeLa S3; experiment: XTT cytotoxicity assay, HeLa S3; details: Homo sapiens, read-out: XTT, IC50 HeLa S3
# Procedure, shortened: (§2)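 Cells seeded at 10,000 per well, compounds added after 24 h and incubated 72 h, then XTT (with N-methyl dibenzopyrazine methyl sulfate) for 2 h; absorbance at 495 nm. IC50 by non-linear regression.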
# [4] = tested on: HepG2; experiment: XTT cytotoxicity assay, HepG2; details: Homo sapiens, read-out: XTT, IC50 HepG2
# Procedure, shortened: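 HepG2 cells seeded at 10,000/well, compounds added after 24 h and incubated 72 h at 37 °C, 5% CO2. Viability by XTT reduction (1 mg/mL XTT plus electron coupler), absorbance at 495 nm after 2 h; IC50 by non-linear regression.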
# [5] = tested on: HL60; experiment: XTT cytotoxicity assay, HL-60; details: Homo sapiens, read-out: XTT, IC50 HL60
# Procedure, shortened: as §2
# [6] = tested on: Huh-7 cells harboring replicon 1B; experiment: Cytotoxicity in replicon 1B cells; details: HCV subtype 1B replicon
# Protocol: as §1
# [7] = Huh-7 cells, HCV subtype 1B replicon, read-out: Replicon 1B EC50
Compound,"IC50 ([1]; HCT-116, 72 h incubation) [µM]","EC50 [2, 7] [µM]","IC50 ([3]; HeLa S3, 72 h incubation) [µM]","IC50 ([4]; HepG2, 72 h incubation) [µM]","IC50 ([5]; HL-60, 72 h incubation) [µM]",CC50 [6] [µM],"IC50 ([1]; HCT-116, 72 h) [µM]","EC50 ([2]; Huh-7, read-out: Replicon 1B EC50) [µM]","IC50 ([3]; HeLa S3, 72 h) [µM]","IC50 ([4]; HepG2, 72 h) [µM]","IC50 ([5]; HL-60, 72 h) [µM]"
"COc1ncnc2c1c(-c1ccsc1)cn2[C@@H]1O[C@H](CO)[C@@H](O)[C@H]1O [Compound 1d, 4-Methoxy-7-(β-D-ribofuranosyl)-5-(thiophen-3-yl)-7H-pyrrolo[2,3-d]pyrimidine]",0.12,0.55,3.35,0.43,0.13,> 44,–,–,–,–,–
"C#Cc1cn([C@@H]2O[C@H](CO)[C@@H](O)[C@H]2O)c2ncnc(C)c12 [Compound 5g, 5-Ethynyl-4-methyl-7-(β-D-ribofuranosyl)-7H-pyrrolo[2,3-d]pyrimidine]",> 20,0.23,14.7,0.29,1.11,> 44,–,–,–,–,–
"C#Cc1cn([C@@H]2O[C@H](CO)[C@@H](O)[C@H]2O)c2ncnc(NC)c12 [Compound 3g, 5-Ethynyl-4-methylamino-7-(β-D-ribofuranosyl)-7H-pyrrolo[2,3-d]pyrimidine]",> 20,0.35,> 20,> 15,9.06,> 44,–,–,–,–,–
"Cc1ncnc2c1c(-c1ccccc1)cn2[C@@H]1O[C@H](CO)[C@@H](O)[C@H]1O [Compound 5e, 4-Methyl-5-phenyl-7-(β-D-ribofuranosyl)-7H-pyrrolo[2,3-d]pyrimidine]",> 100,34.8,> 20,> 20,> 20,> 44,–,–,–,–,–
"COc1ncnc2c1c(-c1ccco1)cn2[C@@H]1O[C@H](CO)[C@@H](O)[C@H]1O [Compound 1a, 5-(Furan-2-yl)-4-methoxy-7-(β-D-ribofuranosyl)-7H-pyrrolo[2,3-d]pyrimidine]",0.04,0.02,1.02,0.3,0.1,> 44,–,–,–,–,–
"Cc1ncnc2c1c(-c1ccoc1)cn2[C@@H]1O[C@H](CO)[C@@H](O)[C@H]1O [Compound 5b, 5-(Furan-3-yl)-4-methyl-7-(β-D-ribofuranosyl)-7H-pyrrolo[2,3-d]pyrimidine]",> 20,4.43,> 20,5.32,> 15,> 44,–,–,–,–,–
"Cc1ncnc2c1c(-c1ccco1)cn2[C@@H]1O[C@H](CO)[C@@H](O)[C@H]1O [Compound 5a, 5-(Furan-2-yl)-4-methyl-7-(β-D-ribofuranosyl)-7H-pyrrolo[2,3-d]pyrimidine]",0.04,0.07,1.33,0.3,0.21,6.62,–,–,–,–,–
"COc1ncnc2c1ccn2[C@@H]1O[C@H](CO)[C@@H](O)[C@H]1O [RC1, reference compound]",> 20,43.2,> 20,> 20,> 20,> 44,–,–,–,–,–
"COc1ncnc2c1c(-c1ccoc1)cn2[C@@H]1O[C@H](CO)[C@@H](O)[C@H]1O [Compound 1b, 5-(Furan-3-yl)-4-methoxy-7-(β-D-ribofuranosyl)-7H-pyrrolo[2,3-d]pyrimidine]",0.11,0.33,1.79,0.29,0.15,> 44,–,–,–,–,–
"C#Cc1cn([C@@H]2O[C@H](CO)[C@@H](O)[C@H]2O)c2ncnc(N(C)C)c12 [Compound 4g, 4-Dimethylamino-5-ethynyl-7-(β-D-ribofuranosyl)-7H-pyrrolo[2,3-d]pyrimidine]",0.18,0.07,0.81,1.32,0.29,> 44,–,–,–,–,–
"CN(C)c1ncnc2c1c(-c1ccsc1)cn2[C@@H]1O[C@H](CO)[C@@H](O)[C@H]1O [Compound 4d, 4-Dimethylamino-7-(β-D-ribofuranosyl)-5-(thiophen-3-yl)-7H-pyrrolo[2,3-d]pyrimidine]",> 20,38.4,> 15,> 20,1.92,> 44,–,–,–,–,–
"CN(C)c1ncnc2c1c(I)cn2[C@@H]1O[C@H](CO)[C@@H](O)[C@H]1O [Compound 4h, 4-Dimethylamino-5-iodo-7-(β-D-ribofuranosyl)-7H-pyrrolo[2,3-d]pyrimidine]",0.09,0.69,0.19,13.9,0.05,> 44,–,–,–,–,–
"CSc1ncnc2c1ccn2[C@@H]1O[C@H](CO)[C@@H](O)[C@H]1O [RC2, reference compound]",–,–,–,–,–,> 44,> 20,29.9,11.9,> 20,7.19
"CSc1ncnc2c1c(-c1ccccc1)cn2[C@@H]1O[C@H](CO)[C@@H](O)[C@H]1O [Compound 2e, 4-Methylsulfanyl-5-phenyl-7-(β-D-ribofuranosyl)-7H-pyrrolo[2,3-d]pyrimidine]",> 20,23.3,> 20,> 20,> 20,> 44,–,–,–,–,–
"CNc1ncnc2c1c(-c1ccccc1)cn2[C@@H]1O[C@H](CO)[C@@H](O)[C@H]1O [Compound 3e, 4-Methylamino-5-phenyl-7-(β-D-ribofuranosyl)-7H-pyrrolo[2,3-d]pyrimidine]",> 20,> 44,> 20,> 20,> 20,> 44,–,–,–,–,–
